Key:
Assay type in all cases: in vivo
[1] = tested on: barnyardgrass (Echinochloa crus-galli); assay: Test A postemergence; conditions: Echinochloa crus-galli, post-emergence, 240 h, 125 g ai/ha, postemergence, visual injury rating after approximately 10 d; read-out: Barnyardgrass plant response rating (0 to 100 scale, 0 no effect, 100 complete control)
How it was run: (§1)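 Seeds sprayed preemergence with a directed soil spray, or plants at 2 to 10 cm height and one- to two-leaf stage sprayed postemergence, with test chemicals in a non-phytotoxic solvent mixture containing surfactant, in loam soil–sand blend. Injury rated visually against untreated controls after about 10 d in greenhouse, 0 (no effect) to 100 (complete control).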

[2] = tested on: giant foxtail (Setaria faberii); assay: Test A postemergence; conditions: Setaria faberi, post-emergence, 240 h, 125 g ai/ha, postemergence, visual injury rating after approximately 10 d; read-out: Foxtail, Giant plant response rating (0 to 100 scale, 0 no effect, 100 complete control)
How it was run: as §1

[3] = tested on: ryegrass, Italian (Italian ryegrass, Lolium multiflorum); assay: Test A postemergence; conditions: Lolium multiflorum, post-emergence, 240 h, 125 g ai/ha, postemergence, visual injury rating after approximately 10 d; read-out: Ryegrass, Italian plant response rating (0 to 100 scale, 0 no effect, 100 complete control)
How it was run: as §1

[4] = tested on: ragweed (common ragweed, Ambrosia elatior); assay: Test A postemergence; conditions: Ambrosia artemisiifolia, post-emergence, 240 h, 125 g ai/ha, postemergence, visual injury rating after approximately 10 d; read-out: Ragweed plant response rating (0 to 100 scale, 0 no effect, 100 complete control)
How it was run: as §1

[5] = tested on: corn (Zea mays); assay: Test A postemergence; conditions: Zea mays, post-emergence, 240 h, 125 g ai/ha, postemergence, visual injury rating after approximately 10 d; read-out: Corn plant response rating (0 to 100 scale, 0 no effect, 100 complete control)
How it was run: as §1

[6] = tested on: Kochia (Kochia scoparia); assay: Test A postemergence; conditions: Bassia scoparia, post-emergence, 240 h, 125 g ai/ha, postemergence, visual injury rating after approximately 10 d; read-out: Kochia plant response rating (0 to 100 scale, 0 no effect, 100 complete control)
How it was run: as §1

[7] = tested on: pigweed (Amaranthus retroflexus); assay: Test A postemergence; conditions: Amaranthus retroflexus, post-emergence, 240 h, 125 g ai/ha, postemergence, visual injury rating after approximately 10 d; read-out: Pigweed plant response rating (0 to 100 scale, 0 no effect, 100 complete control)
How it was run: as §1

[8] = tested on: Galium (catchweed bedstraw, Galium aparine); assay: Test A postemergence; conditions: Galium, post-emergence, 240 h, 125 g ai/ha, postemergence, visual injury rating after approximately 10 d; read-out: Galium plant response rating (0 to 100 scale, 0 no effect, 100 complete control)
How it was run: as §1

[9] = tested on: wheat (Triticum aestivum); assay: Test A postemergence; conditions: Triticum aestivum, post-emergence, 240 h, 125 g ai/ha, postemergence, visual injury rating after approximately 10 d; read-out: Wheat plant response rating (0 to 100 scale, 0 no effect, 100 complete control)
How it was run: as §1

[10] = tested on: barnyardgrass (Echinochloa crus-galli); assay: Test A preemergence; conditions: Echinochloa crus-galli, pre-emergence, 240 h; for pest or weed control at 125 g/ha: 125 g ai/ha, preemergence, 0 to 100 scale where 0 is no effect and 100 is complete control, read-out: Barnyardgrass plant response rating; for pest or weed control at 500 g/ha: 500 g ai/ha, Preemergence, visual injury vs untreated controls after approximately 10 d, read-out: Barnyardgrass plant response rating (0 to 100 scale where 0 is no effect and 100 is complete control)
How it was run: as §1

[11] = tested on: giant foxtail (Setaria faberii); assay: Test A preemergence; conditions: Setaria faberi, pre-emergence, 240 h; for pest or weed control at 125 g/ha: 125 g ai/ha, preemergence, 0 to 100 scale where 0 is no effect and 100 is complete control, read-out: Foxtail, Giant plant response rating; for pest or weed control at 500 g/ha: 500 g ai/ha, Preemergence, visual injury vs untreated controls after approximately 10 d, read-out: Foxtail, Giant plant response rating (0 to 100 scale where 0 is no effect and 100 is complete control)
How it was run: as §1

[12] = tested on: ryegrass, Italian (Italian ryegrass, Lolium multiflorum); assay: Test A preemergence; conditions: Lolium multiflorum, pre-emergence, 240 h; for pest or weed control at 125 g/ha: 125 g ai/ha, preemergence, 0 to 100 scale where 0 is no effect and 100 is complete control, read-out: Ryegrass, Italian plant response rating; for pest or weed control at 500 g/ha: 500 g ai/ha, Preemergence, visual injury vs untreated controls after approximately 10 d, read-out: Ryegrass, Italian plant response rating (0 to 100 scale where 0 is no effect and 100 is complete control)
How it was run: as §1

[13] = tested on: ragweed (common ragweed, Ambrosia elatior); assay: Test A preemergence; conditions: Ambrosia artemisiifolia, pre-emergence, 240 h; for pest or weed control at 125 g/ha: 125 g ai/ha, preemergence, 0 to 100 scale where 0 is no effect and 100 is complete control, read-out: Ragweed plant response rating; for pest or weed control at 500 g/ha: 500 g ai/ha, Preemergence, visual injury vs untreated controls after approximately 10 d, read-out: Ragweed plant response rating (0 to 100 scale where 0 is no effect and 100 is complete control)
How it was run: as §1

[14] = tested on: Kochia (Kochia scoparia); assay: Test A preemergence; conditions: Bassia scoparia, pre-emergence, 240 h; for pest or weed control at 125 g/ha: 125 g ai/ha, preemergence, 0 to 100 scale where 0 is no effect and 100 is complete control, read-out: Kochia plant response rating; for pest or weed control at 500 g/ha: 500 g ai/ha, Preemergence, visual injury vs untreated controls after approximately 10 d, read-out: Kochia plant response rating (0 to 100 scale where 0 is no effect and 100 is complete control)
How it was run: as §1

[15] = tested on: pigweed (Amaranthus retroflexus); assay: Test A preemergence; conditions: Amaranthus retroflexus, pre-emergence, 240 h; for pest or weed control at 125 g/ha: 125 g ai/ha, preemergence, 0 to 100 scale where 0 is no effect and 100 is complete control, read-out: Pigweed plant response rating; for pest or weed control at 500 g/ha: 500 g ai/ha, Preemergence, visual injury vs untreated controls after approximately 10 d, read-out: Pigweed plant response rating (0 to 100 scale where 0 is no effect and 100 is complete control)

Row | SMILES | pest or weed control at 125 g/ha [1] | pest or weed control at 125 g/ha [2] | pest or weed control at 125 g/ha [3] | pest or weed control at 125 g/ha [4] | plant injury at 125 g/ha [5] | pest or weed control at 125 g/ha [6] | pest or weed control at 125 g/ha [7] | pest or weed control at 125 g/ha [8] | plant injury at 125 g/ha [9] | pest or weed control at 125 g/ha [10] | pest or weed control at 500 g/ha [10] | pest or weed control at 125 g/ha [11] | pest or weed control at 500 g/ha [11] | pest or weed control at 125 g/ha [12] | pest or weed control at 500 g/ha [12] | pest or weed control at 125 g/ha [13] | pest or weed control at 500 g/ha [13] | pest or weed control at 125 g/ha [14] | pest or weed control at 500 g/ha [14] | pest or weed control at 125 g/ha [15] | also measured
1 | O=C1NC[C@H](c2cc(F)c(C(F)(F)F)c(F)c2)[C@H]1C(=O)Nc1ccc(F)cc1F [Compound 840] | 80% | 90% | 0% | 0% | 30% | 0% | 0% | 50% | 20% | 80% | 90% | 90% | 90% | 0% | 20% | 0% | 0% | 0% | 70% | 30% | pest or weed control at 500 g/ha [15]: 60%
2 | CCOc1ccc([C@H]2CNC(=O)[C@@H]2C(=O)Nc2ccccc2F)cc1 [Compound 906] | 0% | 0% | 0% | 0% | 0% | 0% | 0% | 0% | 0% | 0% | 0% | 0% | 0% | 0% | 0% | 0% | 0% | 0% | 0% | 0% | pest or weed control at 500 g/ha [15]: 0%
